{
  "source": "ChEMBL document CHEMBL1201862",
  "about": "“PubChem BioAssay data set” (2004)",
  "assay_in_all_cases": "NCI-60 cell line screen, 48 h",
  "key": {"RXF 393": {"system": "RXF 393"}, "LOX IMVI": {"system": "LOX IMVI"}, "UACC-62": {"system": "UACC-62"}, "NCI-H23": {"system": "NCI-H23"}, "OVCAR-4": {"system": "OVCAR-4"}, "OVCAR-5": {"system": "OVCAR-5"}, "SK-MEL-5": {"system": "SK-MEL-5"}, "SW-620": {"system": "SW-620"}, "HOP-92": {"system": "HOP-92"}, "Hs-578T": {"system": "Hs-578T"}, "SK-OV-3": {"system": "SK-OV-3"}, "A498": {"system": "A498"}, "NCI/ADR-RES": {"system": "NCI/ADR-RES"}, "OVCAR-8": {"system": "OVCAR-8"}, "COLO 205": {"system": "COLO 205"}, "IGROV-1": {"system": "IGROV-1"}, "Malme-3M": {"system": "Malme-3M"}, "BT-549": {"system": "BT-549"}, "NCI-H226": {"system": "NCI-H226"}},
  "note": "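Growth conditions: 96-well plates. Treatment: test compound, 48 hours, 5 concentrations. Analysis: linear interpolation between bracketing concentrations; unreached endpoints set to highest concentration. At the GI50, growth is halved.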 The source made the active and inactive calls. Cut-off read from the data, not from the text of the source: active = GI50 up to about 1.1 µM and inactive = higher.",
  "data": [
    {"smiles": "O=C1c2cc([N+](=O)[O-])ccc2-c2ccc3c4ccc5c6c(ccc(c7ccc1c2c73)c64)C(=O)c1cc([N+](=O)[O-])ccc1-5", "values": [
      {"measurement": "GI50", "setting": "RXF 393", "value": "> 100 µM (inactive)"},
      {"measurement": "GI50", "setting": "LOX IMVI", "value": "> 100 µM (inactive)"},
      {"measurement": "GI50", "setting": "UACC-62", "value": "> 100 µM (inactive)"},
      {"measurement": "GI50", "setting": "NCI-H23", "value": "> 100 µM (inactive)"},
      {"measurement": "GI50", "setting": "OVCAR-4", "value": "> 100 µM (inactive)"},
      {"measurement": "GI50", "setting": "OVCAR-5", "value": "> 100 µM (inactive)"},
      {"measurement": "GI50", "setting": "SK-MEL-5", "value": "> 100 µM (inactive)"},
      {"measurement": "GI50", "setting": "SW-620", "value": "> 100 µM (inactive)"},
      {"measurement": "GI50", "setting": "HOP-92", "value": "> 100 µM (inactive)"},
      {"measurement": "GI50", "setting": "Hs-578T", "value": "> 100 µM (inactive)"},
      {"measurement": "GI50", "setting": "SK-OV-3", "value": "> 100 µM (inactive)"},
      {"measurement": "GI50", "setting": "A498", "value": "4.03 µM (inactive)"},
      {"measurement": "GI50", "setting": "NCI/ADR-RES", "value": "> 100 µM (inactive)"},
      {"measurement": "GI50", "setting": "OVCAR-8", "value": "> 100 µM (inactive)"},
      {"measurement": "GI50", "setting": "COLO 205", "value": "> 100 µM (inactive)"},
      {"measurement": "GI50", "setting": "IGROV-1", "value": "> 100 µM (inactive)"},
      {"measurement": "GI50", "setting": "Malme-3M", "value": "> 100 µM (inactive)"},
      {"measurement": "GI50", "setting": "BT-549", "value": "> 100 µM (inactive)"},
      {"measurement": "GI50", "setting": "NCI-H226", "value": "> 100 µM (inactive)"}
    ]},
    {"smiles": "CCN(CC)CC[S+]([O-])c1c2cc(OC)ccc2nc2ccc(OC)cc12", "note": "(centres undefined)", "values": [
      {"measurement": "GI50", "setting": "RXF 393", "value": "7.33 µM (inactive)"},
      {"measurement": "GI50", "setting": "LOX IMVI", "value": "3.23 µM (inactive)"},
      {"measurement": "GI50", "setting": "UACC-62", "value": "17.8 µM (inactive)"},
      {"measurement": "GI50", "setting": "NCI-H23", "value": "7.64 µM (inactive)"},
      {"measurement": "GI50", "setting": "OVCAR-4", "value": "14.4 µM (inactive)"},
      {"measurement": "GI50", "setting": "OVCAR-5", "value": "16.6 µM (inactive)"},
      {"measurement": "GI50", "setting": "SK-MEL-5", "value": "16.5 µM (inactive)"},
      {"measurement": "GI50", "setting": "SW-620", "value": "3.03 µM (inactive)"},
      {"measurement": "GI50", "setting": "HOP-92", "value": "3.28 µM (inactive)"},
      {"measurement": "GI50", "setting": "Hs-578T", "value": "3.24 µM (inactive)"},
      {"measurement": "GI50", "setting": "SK-OV-3", "value": "21.6 µM (inactive)"},
      {"measurement": "GI50", "setting": "A498", "value": "16.3 µM (inactive)"},
      {"measurement": "GI50", "setting": "NCI/ADR-RES", "value": "19.6 µM (inactive)"},
      {"measurement": "GI50", "setting": "OVCAR-8", "value": "3.83 µM (inactive)"},
      {"measurement": "GI50", "setting": "COLO 205", "value": "1.88 µM (inactive)"},
      {"measurement": "GI50", "setting": "IGROV-1", "value": "2.54 µM (inactive)"},
      {"measurement": "GI50", "setting": "Malme-3M", "value": "0.865 µM (active)"},
      {"measurement": "GI50", "setting": "BT-549", "value": "15.8 µM (inactive)"},
      {"measurement": "GI50", "setting": "NCI-H226", "value": "18.1 µM (inactive)"}
    ]},
    {"smiles": "N#CC1=C2Sc3ccccc3N2[C@H](c2ccccc2)[C@H]2COC(=O)[C@@H]12", "values": [
      {"measurement": "GI50", "setting": "RXF 393", "value": "70.3 µM (inactive)"},
      {"measurement": "GI50", "setting": "LOX IMVI", "value": "26.3 µM (inactive)"},
      {"measurement": "GI50", "setting": "UACC-62", "value": "67.1 µM (inactive)"},
      {"measurement": "GI50", "setting": "NCI-H23", "value": "77.3 µM (inactive)"},
      {"measurement": "GI50", "setting": "OVCAR-4", "value": "> 100 µM (inactive)"},
      {"measurement": "GI50", "setting": "OVCAR-5", "value": "> 100 µM (inactive)"},
      {"measurement": "GI50", "setting": "SK-MEL-5", "value": "> 100 µM (inactive)"},
      {"measurement": "GI50", "setting": "SW-620", "value": "35.2 µM (inactive)"},
      {"measurement": "GI50", "setting": "HOP-92", "value": "> 100 µM (inactive)"},
      {"measurement": "GI50", "setting": "Hs-578T", "value": "> 100 µM (inactive)"},
      {"measurement": "GI50", "setting": "SK-OV-3", "value": "> 100 µM (inactive)"},
      {"measurement": "GI50", "setting": "A498", "value": "54.8 µM (inactive)"},
      {"measurement": "GI50", "setting": "NCI/ADR-RES", "value": "> 100 µM (inactive)"},
      {"measurement": "GI50", "setting": "OVCAR-8", "value": "> 100 µM (inactive)"},
      {"measurement": "GI50", "setting": "COLO 205", "value": "> 100 µM (inactive)"},
      {"measurement": "GI50", "setting": "Malme-3M", "value": "16.7 µM (inactive)"},
      {"measurement": "GI50", "setting": "BT-549", "value": "27.9 µM (inactive)"},
      {"measurement": "GI50", "setting": "NCI-H226", "value": "> 100 µM (inactive)"}
    ]},
    {"smiles": "CCOC(=O)c1c(OCC)[nH]c(=O)c(C(c2ccc(F)cc2)c2c(O)c(C(=O)OCC)c(OCC)[nH]c2=O)c1O", "values": [
      {"measurement": "GI50", "setting": "RXF 393", "value": "4.28 µM (inactive)"},
      {"measurement": "GI50", "setting": "LOX IMVI", "value": "16.6 µM (inactive)"},
      {"measurement": "GI50", "setting": "UACC-62", "value": "15.6 µM (inactive)"},
      {"measurement": "GI50", "setting": "NCI-H23", "value": "19.5 µM (inactive)"},
      {"measurement": "GI50", "setting": "OVCAR-4", "value": "14.6 µM (inactive)"},
      {"measurement": "GI50", "setting": "OVCAR-5", "value": "29 µM (inactive)"},
      {"measurement": "GI50", "setting": "SK-MEL-5", "value": "12.8 µM (inactive)"},
      {"measurement": "GI50", "setting": "SW-620", "value": "17.3 µM (inactive)"},
      {"measurement": "GI50", "setting": "HOP-92", "value": "1.46 µM (inactive)"},
      {"measurement": "GI50", "setting": "Hs-578T", "value": "20.8 µM (inactive)"},
      {"measurement": "GI50", "setting": "A498", "value": "11.4 µM (inactive)"},
      {"measurement": "GI50", "setting": "NCI/ADR-RES", "value": "24.1 µM (inactive)"},
      {"measurement": "GI50", "setting": "OVCAR-8", "value": "14 µM (inactive)"},
      {"measurement": "GI50", "setting": "COLO 205", "value": "25.9 µM (inactive)"},
      {"measurement": "GI50", "setting": "IGROV-1", "value": "14.9 µM (inactive)"},
      {"measurement": "GI50", "setting": "Malme-3M", "value": "8.32 µM (inactive)"},
      {"measurement": "GI50", "setting": "BT-549", "value": "9.71 µM (inactive)"},
      {"measurement": "GI50", "setting": "NCI-H226", "value": "9.82 µM (inactive)"}
    ]}
  ]
}
